Source: PMC6024615, “Effect of Biliary Drainage on the Toxicity and Toxicokinetics of Amanita exitialis in Beagles” (Toxins, 2018)
Read-outs that look alike come from different tables or passages of the source. *1 amine or outer side, *2 acyl side, *3 side chain or, on linkers, in order; H or OH if unused. Where a SMILES comes first, the peptide text is derived from it. Bridges are numbered along the chain shown (N, C = ends). [ ]: non-standard residue; d: D form. Trp(2-yl) = O=C([C@H](Cc1c([*:3])[nH]c2ccccc12)N[*:1])[*:2]; Leu(4R-OH,5-OH) = C[C@](O)(CO)C[C@H](N)C(=O)O; dAsp(3S-OH) = N[C@@H](C(=O)O)[C@H](O)C(=O)O; cisHyp = O=C(O)[C@@H]1C[C@H](O)CN1

Tests used:
[1] = cited from earlier work
Procedure: The difference in detectable time in the urine can be explained by the low level of internal exposure (amatoxins in the blood). […] The daily amounts of peptide toxins excreted in urine in beagles without biliary drainage(mg). Time after α-Amanitin β-Amanitin Phallacidin ingestion 20 mg/kg 60 mg/kg 20 mg/kg 60 mg/kg 20 mg/kg 60 mg/kg group group group group group group 0-1d 0.0379 0.0593 0.0156 0.0251 0.0035 0.0088 (97.9%) (92.8%) (99.9%) (94.7%) (94.2%) (76%) 1-2d 0.0388 0.0618 0.01567 0.0255 0.0037 0.0110 (99.995%) (97.5%) (100%) (96.2%) (100%) (93%) 2-3d 0.0002 0.0626 0 0.0260 0 0.0115 (100%) (99.4%) (100%) (98.2%) (100%) (97.3%) 3-4d 0 0.063 ...

[2] = Peptide toxins in the blood / toxicokinetics in beagles with biliary drainage; format: in vivo, beagle dogs
Procedure: The study was approved by National Institute of Occupational Health and Poison Control review board for animal experiments. Twenty-four male beagles (age, 8–10 months; weight, 10 ± 1 kg) were obtained from Beijing Institute of Xieerxin Biology Resource (Beijing, China). They were randomly divided into four groups of six animals each: control, biliary drainage, and 20 and 60 mg/kg with biliary drainage groups. The biliary drainage operation was conducted in all groups barring the control group. The dogs were dressed in homemade underwear, coats, and Elizabeth circles for a week to ensure pre-experimental acclimatization (Figure S8a–c). After determining the baseline values for biochemical indicators, the dogs were fasted for 24 h but received water ad libitum. They were anesthetized by intravenous administration of pentobarbital sodium (3%, 1 mL/kg) during the surgery. A temperature of 38–39 °C was maintained with a warming mat. After skin preservation and sterilization, the abdominal cavity was opened through the central abdomen. The abdomen was explored and blunt dissection of the common bile duct was performed (Figure S8d). The common bile duct and its branches were ligated from the intestinal side. A 7.0-Fr drainage catheter (COOK, Bloomington, IN, USA) was percutaneously inserted into the gallbladder, and a medical drainage bag was connected to the drainage catheter coming out of the abdominal cavity. Each opened layer, including the peritoneum, abdominal wall muscle, and skin, was closed with suture. The operative incision was protected with sterile gauze and a bandage, and the dogs were dressed in homemade underwear, coats, and Elizabeth circles. The drainage bag was placed in the pocket of the coat (Figure S8e). After the anesthetic wore off, the dogs were placed in cages, and food and water were provided ad libitum. The operative incision was sterilized with iodophor twice a day until stitches were removed six days after surgery. The drainage bag was replaced every day. On the eighth day after surgery, the 20 and 60 mg/kg with biliary drainage groups were orally administered a lyophilized powder of Amanita exitialis in starch capsules. In control and bile drainage group, the beagle dogs were fed with empty capsules. Immediately after dosing, the animals were placed in their cages, and food and water were provided ad libitum. Dogs were sacrificed with an overdose of sodium pentobarbital at the end of the experiment. All procedures were performed according to the ethical standards of the National Institutes of Health Guide for Animal Welfare and approved by the Institutional Animal Care and Use Committee (EAWE-2017-005).
Peptide toxins in blood and urine samples were analyzed as described previously. Bile samples from Days 0–1, Days 1–2, Days 2–3, and Days 3–4 were collected and stored in medical drainage bags and the bile volume was recorded. Plasma and urine samples were stored at 2–8 °C until analysis for peptide toxins.
UPLC and MS/MS parameters were as described in our previous study. The limit of detection and limit of quantitation of each toxin in the bile were 0.03 mg/kg and 0.5 mg/kg, respectively.
Toxicokinetic parameters were described in our previous study. Measurement data are reported as mean ± standard deviation values and enumeration data are reported as percentage (%). […] SPSS 22.0 (IBM Corporation, Armonk, NY, USA, 2015) was used for statistical analysis. The criterion for statistical significance was p ≤ 0.05. Except for the biliary drainage operation, the animals and methods in our present study are in accordance with our previously published study. Thus, by directly comparing the data from this study with those from our published studies on Amanita exitialis-exposed beagles without biliary drainage, we can evaluate the impact of biliary drainage on the toxicity and toxicokinetics of Amanita exitialis in beagles.

[3] = 60 mg/kg Amanita exitialis oral, biliary drainage, plasma, mean ± SD

CC(C)[C@@H]1NC(=O)[C@H](C[C@@](C)(O)CO)NC(=O)[C@@H]2Cc3c([nH]c4ccccc34)SC[C@H](NC(=O)[C@@H]([C@H](O)C(=O)O)NC1=O)C(=O)N1C[C@@H](O)C[C@H]1C(=O)N[C@@H](C)C(=O)N2 [phallacidin] (cyclo(A[Trp(2-yl)][Leu(4R-OH,5-OH)]V[dAsp(3S-OH)]C[cisHyp]); thioether 2-6)
daily amount excreted in urine, without biliary drainage ([1]; 0-1d, 20 mg/kg group): 0.0035 mg | percentage in parentheses, urine, without biliary drainage ([1]; 0-1d, 20 mg/kg group): 94.2% | daily amount excreted in urine, without biliary drainage ([1]; 0-1d, 60 mg/kg group): 0.0088 mg | percentage in parentheses, urine, without biliary drainage ([1]; 0-1d, 60 mg/kg group): 76% | Accumulative amount excreted in urine, without biliary drainage ([1]; 20 mg/kg group): 0.0037 mg | percentage in parentheses, Accumulative amount, urine, without biliary drainage ([1]; 20 mg/kg group): 100% | percentage in parentheses, Accumulative amount, urine, without biliary drainage ([1]; 60 mg/kg group): 100% | percentage in parentheses, urine, without biliary drainage ([1]; 1-2d, 20 mg/kg group): 100% | daily amount excreted in urine, without biliary drainage ([1]; 1-2d, 60 mg/kg group): 0.0110 mg | percentage in parentheses, urine, without biliary drainage ([1]; 1-2d, 60 mg/kg group): 93% | daily amount excreted in urine, without biliary drainage ([1]; 2-3d, 20 mg/kg group): 0 mg | percentage in parentheses, urine, without biliary drainage ([1]; 2-3d, 20 mg/kg group): 100% | daily amount excreted in urine, without biliary drainage ([1]; 2-3d, 60 mg/kg group): 0.0115 mg | percentage in parentheses, urine, without biliary drainage ([1]; 2-3d, 60 mg/kg group): 97.3% | daily amount excreted in urine, without biliary drainage ([1]; 3-4d, 20 mg/kg group): 0 mg | percentage in parentheses, urine, without biliary drainage ([1]; 3-4d, 20 mg/kg group): 100% | daily amount excreted in urine, without biliary drainage ([1]; 3-4d, 60 mg/kg group): 0.0118 mg | percentage in parentheses, urine, without biliary drainage ([1]; 3-4d, 60 mg/kg group): 100% | detection rate of peptide toxins in blood ([2]; 0 h after ingestion, 20 mg/kg with biliary drainage group): 0% | detection rate of peptide toxins in blood ([2]; 0 h after ingestion, 60 mg/kg with biliary drainage group): 0% | T1/2 ([2]; 60 mg/kg Amanita exitialis oral, biliary drainage, plasma, UPLC-ESI-MS/MS, mean ± SD): 0.62 ± 0.32 ^b,* h | AUC (0–∞) [2, 3]: 2.08 ± 2.06 ^b,* µg/L × h | CL/F [2, 3]: 1.1 ± 0.86 ^b,* L/h/kg | Cmax [2, 3]: 0.85 ± 0.37 ^b,* µg/L | Dose normalized AUC (0–∞) [2, 3]: 60.5 ± 60.2 ^b,* | Dose normalized Cmax [2, 3]: 24.8 ± 10.8 ^b,* | MRT (0–∞) [2, 3]: 1.95 ± 0.73 ^b,* h | Tmax [2, 3]: 1.38 ± 0.25 h | detection rate of peptide toxins in blood ([2]; 0.25 h after ingestion, 20 mg/kg with biliary drainage group): 0% | detection rate of peptide toxins in blood ([2]; 0.25 h after ingestion, 60 mg/kg with biliary drainage group): 33% | detection rate of peptide toxins in blood ([2]; 0.5 h after ingestion, 20 mg/kg with biliary drainage group): 0% | detection rate of peptide toxins in blood ([2]; 0.5 h after ingestion, 60 mg/kg with biliary drainage group): 33% | detection rate of peptide toxins in blood ([2]; 1 h after ingestion, 20 mg/kg with biliary drainage group): 50% | detection rate of peptide toxins in blood ([2]; 1 h after ingestion, 60 mg/kg with biliary drainage group): 100% | detection rate of peptide toxins in blood ([2]; 1.5 h after ingestion, 20 mg/kg with biliary drainage group): 66% | detection rate of peptide toxins in blood ([2]; 1.5 h after ingestion, 60 mg/kg with biliary drainage group): 100% | detection rate of peptide toxins in blood ([2]; 2 h after ingestion, 20 mg/kg with biliary drainage group): 33% | detection rate of peptide toxins in blood ([2]; 2 h after ingestion, 60 mg/kg with biliary drainage group): 100% | detection rate of peptide toxins in blood ([2]; 3 h after ingestion, 20 mg/kg with biliary drainage group): 33% | detection rate of peptide toxins in blood ([2]; 3 h after ingestion, 60 mg/kg with biliary drainage group): 50% | detection rate of peptide toxins in blood ([2]; 4 h after ingestion, 20 mg/kg with biliary drainage group): 17% | detection rate of peptide toxins in blood ([2]; 4 h after ingestion, 60 mg/kg with biliary drainage group): 50% | detection rate of peptide toxins in blood ([2]; 5 h after ingestion, 20 mg/kg with biliary drainage group): 0% | detection rate of peptide toxins in blood ([2]; 5 h after ingestion, 60 mg/kg with biliary drainage group): 33% | detection rate of peptide toxins in blood ([2]; 6 h after ingestion, 20 mg/kg with biliary drainage group): 0% | detection rate of peptide toxins in blood ([2]; 6 h after ingestion, 60 mg/kg with biliary drainage group): 17% | detection rate of peptide toxins in blood ([2]; 8 h after ingestion, 20 mg/kg with biliary drainage group): 0% | detection rate of peptide toxins in blood ([2]; 8 h after ingestion, 60 mg/kg with biliary drainage group): 0% | detection rate of peptide toxins in blood ([2]; 10 h after ingestion, 20 mg/kg with biliary drainage group): 0% | detection rate of peptide toxins in blood ([2]; 10 h after ingestion, 60 mg/kg with biliary drainage group): 0% | detection rate of peptide toxins in blood ([2]; 12 h after ingestion, 20 mg/kg with biliary drainage group): 0% | detection rate of peptide toxins in blood ([2]; 12 h after ingestion, 60 mg/kg with biliary drainage group): 0% | detection rate of peptide toxins in blood ([2]; 24 h after ingestion, 20 mg/kg with biliary drainage group): 0% | detection rate of peptide toxins in blood ([2]; 24 h after ingestion, 60 mg/kg with biliary drainage group): 0% | detection rate of peptide toxins in blood ([2]; 36 h after ingestion, 20 mg/kg with biliary drainage group): 0% | detection rate of peptide toxins in blood ([2]; 36 h after ingestion, 60 mg/kg with biliary drainage group): 0% | detection rate of peptide toxins in blood ([2]; 48 h after ingestion, 20 mg/kg with biliary drainage group): 0% | detection rate of peptide toxins in blood ([2]; 48 h after ingestion, 60 mg/kg with biliary drainage group): 0% | time at which toxins were detected in plasma after ingestion ([2]; beagles with biliary drainage, oral Amanita exitialis): 30 min | Vd/F ([2]; male, beagle, dog, 60 mg/kg Amanita exitialis oral, biliary drainage, plasma, mean ± SD, read-out: Vz/F): 1.77 ± 0.57 L/kg
